Measurements from the NIST ThermoML archive (doi:10.1021/je101012n).
± gives the expanded uncertainty stated by the source.

Experiment: mn = molality of the nth substance listed, in mol/kg
Settings: 101 kPa, Liquid, Alternating current cell with electrodes

O=[N+]([O-])[O-].O=[N+]([O-])[O-].O=[N+]([O-])[O-].[Fe+3] [ferric nitrate] + O
electrical conductivity [S/m]
Settings | 278.1 K | 283.1 K | 298.15 K | 308.15 K | 318.15 K | 343.15 K | 363.15 K
m1 = 9.9e-05 | – | – | – | – | – | 9.086 ± 0.036 | 10.27 ± 0.041
m1 = 0.000984 | – | – | – | – | – | 9.106 ± 0.036 | 10.33 ± 0.041
m1 = 0.00985 | – | – | – | – | – | 9.553 ± 0.038 | 10.91 ± 0.044
m1 = 0.09618 | 5.143 ± 0.021 | 5.777 ± 0.023 | 7.576 ± 0.03 | 8.788 ± 0.035 | 10.15 ± 0.041 | 13.85 ± 0.055 | 16.52 ± 0.066
m1 = 0.2534 | 6.656 ± 0.027 | 7.523 ± 0.03 | 9.984 ± 0.04 | 11.83 ± 0.047 | 14.02 ± 0.056 | 20.32 ± 0.081 | –

O=S(=O)([O-])[O-].O=S(=O)([O-])[O-].O=S(=O)([O-])[O-].[Fe+3].[Fe+3] [ferric sulfate] + O
electrical conductivity [S/m]
Settings | 343.15 K | 363.15 K
m1 = 0.000104 | 0.659 ± 0.0026 | 0.6888 ± 0.0028
m1 = 0.000829 | 0.681 ± 0.0027 | 0.718 ± 0.0029

[Cl][Fe][Cl] [ferrous chloride] + O
electrical conductivity [S/m]
Settings | 278.1 K | 283.1 K | 298.15 K | 308.15 K | 318.15 K | 343.15 K | 363.15 K
m1 = 9e-05 | 0.3365 ± 0.0013 | 0.3724 ± 0.0015 | 0.4835 ± 0.0019 | 0.5486 ± 0.0022 | 0.6142 ± 0.0025 | 0.7702 ± 0.0031 | 0.8954 ± 0.0036
m1 = 0.000726 | 0.3437 ± 0.0014 | 0.3802 ± 0.0015 | 0.494 ± 0.002 | 0.5646 ± 0.0023 | 0.635 ± 0.0025 | 0.8025 ± 0.0032 | 0.9282 ± 0.0037
m1 = 0.00908 | 0.4397 ± 0.0018 | 0.4997 ± 0.002 | 0.6568 ± 0.0026 | 0.7661 ± 0.0031 | 0.8715 ± 0.0035 | 1.148 ± 0.0046 | 1.354 ± 0.0054
m1 = 0.1169 | 1.6 ± 0.0064 | 1.807 ± 0.0072 | 2.494 ± 0.01 | 3.003 ± 0.012 | 3.516 ± 0.014 | 4.889 ± 0.02 | 5.966 ± 0.024

Cl [hydrogen chloride] + O
electrical conductivity [S/m]
Settings | 278.15 K | 283.15 K | 298.15 K | 308.15 K | 318.15 K | 343.15 K | 363.15 K
m1 = 0.00011 | 0.003313 ± 1.3e-05 | 0.003683 ± 1.5e-05 | 0.004665 ± 1.9e-05 | 0.00531 ± 2.1e-05 | 0.005973 ± 2.4e-05 | 0.007487 ± 3e-05 | 0.008461 ± 3.4e-05
m1 = 0.000958 | 0.028 ± 0.0001 | 0.03088 ± 0.00012 | 0.03978 ± 0.00016 | 0.04565 ± 0.00018 | 0.05121 ± 0.0002 | 0.06414 ± 0.00026 | 0.07325 ± 0.00029
m1 = 0.00937 | 0.2714 ± 0.0011 | 0.3001 ± 0.0012 | 0.3869 ± 0.0015 | 0.4408 ± 0.0018 | 0.4932 ± 0.002 | 0.6227 ± 0.0025 | 0.7132 ± 0.0029
m1 = 0.09398 | 2.604 ± 0.01 | 2.872 ± 0.011 | 3.684 ± 0.015 | 4.19 ± 0.017 | 4.673 ± 0.019 | 5.872 ± 0.024 | 6.722 ± 0.027
m1 = 0.4603 | 11.98 ± 0.048 | 13.14 ± 0.053 | 16.69 ± 0.067 | 18.97 ± 0.076 | 21.09 ± 0.084 | 26.23 ± 0.1 | 29.87 ± 0.12
m1 = 0.85 | 20.2 ± 0.081 | 22.06 ± 0.088 | 27.9 ± 0.11 | 31.53 ± 0.13 | 34.95 ± 0.14 | 43.45 ± 0.17 | 48.24 ± 0.19

O=S(=O)([O-])O.[K+] [hydrogen potassium sulfate] + O
electrical conductivity [S/m]
Settings | 278.15 K | 283.15 K | 298.15 K | 308.15 K | 318.15 K | 343.15 K | 363.15 K
m1 = 0.000161 | 0.006027 ± 2.4e-05 | 0.006684 ± 2.7e-05 | 0.008772 ± 3.5e-05 | 0.01017 ± 4.1e-05 | 0.01154 ± 5e-05 | 0.01478 ± 6e-05 | 0.01675 ± 7e-05
m1 = 0.000981 | 0.03588 ± 0.00014 | 0.03981 ± 0.00016 | 0.05156 ± 0.00021 | 0.05895 ± 0.00024 | 0.06564 ± 0.00026 | 0.07958 ± 0.00032 | 0.0854 ± 0.00034
m1 = 0.01608 | 0.4635 ± 0.0019 | 0.5067 ± 0.002 | 0.623 ± 0.0025 | 0.6784 ± 0.0027 | 0.7238 ± 0.0029 | 0.7958 ± 0.0032 | 0.8195 ± 0.0033
m1 = 0.09815 | 2.141 ± 0.0086 | 2.318 ± 0.0093 | 2.791 ± 0.011 | 2.998 ± 0.012 | 3.157 ± 0.013 | 3.469 ± 0.014 | 3.665 ± 0.015
m1 = 0.2291 | 4.379 ± 0.018 | 4.728 ± 0.019 | 5.71 ± 0.023 | 6.137 ± 0.025 | 6.456 ± 0.026 | 7.159 ± 0.029 | 7.699 ± 0.031

O=S(=O)([O-])[O-].[Fe+2] [iron(II) sulfate] + O
electrical conductivity [S/m]
Settings | 278.1 K | 283.1 K | 298.15 K | 308.15 K | 318.15 K | 343.15 K | 363.15 K
m1 = 0.00112 | 0.06212 ± 0.00025 | 0.06791 ± 0.00027 | 0.08697 ± 0.00035 | 0.09771 ± 0.00039 | 0.1075 ± 0.0004 | 0.1235 ± 0.0005 | 0.1274 ± 0.0005
m1 = 0.00212 | 0.06435 ± 0.00026 | 0.07287 ± 0.00029 | 0.09366 ± 0.00037 | 0.1063 ± 0.0004 | 0.1165 ± 0.0005 | 0.1409 ± 0.0006 | 0.1543 ± 0.0006
m1 = 0.01287 | 0.1183 ± 0.0005 | 0.1326 ± 0.0005 | 0.1784 ± 0.0007 | 0.2092 ± 0.0008 | 0.2419 ± 0.001 | 0.3214 ± 0.0013 | 0.3988 ± 0.0016
m1 = 0.1121 | 0.2469 ± 0.001 | 0.269 ± 0.0011 | 0.3516 ± 0.0014 | 0.3913 ± 0.0016 | 0.4714 ± 0.0019 | – | –
m1 = 0.2576 | 1.238 ± 0.005 | 1.415 ± 0.0057 | 1.98 ± 0.0079 | 2.303 ± 0.0092 | 2.692 ± 0.011 | 3.631 ± 0.015 | 4.11 ± 0.016

[Cl-].[Li+] [lithium chloride] + O
electrical conductivity [S/m]
Settings | 278.15 K | 283.15 K | 298.15 K | 308.15 K | 318.15 K | 343.15 K | 363.15 K
m1 = 8.5e-05 | 0.0005986 ± 2.4e-06 | 0.0006826 ± 2.7e-06 | 0.0009588 ± 3.8e-06 | 0.00117 ± 5e-06 | 0.001388 ± 6e-06 | 0.001978 ± 8e-06 | 0.002483 ± 1e-05
m1 = 0.000952 | 0.006496 ± 2.6e-05 | 0.007487 ± 3e-05 | 0.01069 ± 4e-05 | 0.01311 ± 5e-05 | 0.01528 ± 6e-05 | 0.02191 ± 9e-05 | 0.02774 ± 0.00011
m1 = 0.00845 | 0.05562 ± 0.00022 | 0.06414 ± 0.00026 | 0.09167 ± 0.00037 | 0.1123 ± 0.0005 | 0.1315 ± 0.0005 | 0.1886 ± 0.0008 | 0.2366 ± 0.0009
m1 = 0.09523 | 0.5516 ± 0.0022 | 0.6326 ± 0.0025 | 0.9019 ± 0.0036 | 1.099 ± 0.0044 | 1.276 ± 0.0051 | 1.809 ± 0.0072 | 2.257 ± 0.009
m1 = 0.9613 | 4.317 ± 0.017 | 4.986 ± 0.02 | 7.13 ± 0.029 | 8.35 ± 0.033 | 9.794 ± 0.039 | 12.64 ± 0.051 | 15.57 ± 0.062

[Cl-].[Cl-].[Mg+2] [magnesium chloride] + O
electrical conductivity [S/m]
Settings | 278.15 K | 283.15 K | 298.15 K | 308.15 K | 318.15 K | 343.15 K | 363.15 K
m1 = 0.000119 | 0.001861 ± 7e-06 | 0.002134 ± 9e-06 | 0.002989 ± 1.2e-05 | 0.003553 ± 1.4e-05 | 0.004209 ± 1.7e-05 | 0.006086 ± 2.4e-05 | 0.00764 ± 3e-05
m1 = 0.000984 | 0.01481 ± 6e-05 | 0.017 ± 0.0001 | 0.02432 ± 0.0001 | 0.02937 ± 0.00012 | 0.03478 ± 0.00014 | 0.0501 ± 0.0002 | 0.06265 ± 0.00025
m1 = 0.01137 | 0.1537 ± 0.0006 | 0.176 ± 0.0007 | 0.2503 ± 0.001 | 0.302 ± 0.0012 | 0.3534 ± 0.0014 | 0.5068 ± 0.002 | 0.6347 ± 0.0025
m1 = 0.09942 | 1.1 ± 0.0044 | 1.256 ± 0.005 | 1.772 ± 0.0071 | 2.137 ± 0.0085 | 2.515 ± 0.01 | 3.575 ± 0.014 | 4.424 ± 0.018
m1 = 0.3609 | 3.449 ± 0.014 | 3.927 ± 0.016 | 5.491 ± 0.022 | 6.606 ± 0.026 | 7.753 ± 0.031 | 10.94 ± 0.044 | 13.6 ± 0.054

O=[N+]([O-])[O-].O=[N+]([O-])[O-].[Mg+2] [magnesium nitrate] + O
electrical conductivity [S/m]
Settings | 278.1 K | 283.1 K | 298.15 K | 308.15 K | 318.15 K | 343.15 K | 363.15 K
m1 = 9.8e-05 | 0.007334 ± 2.9e-05 | 0.008166 ± 3.3e-05 | 0.01072 ± 4e-05 | 0.01244 ± 5e-05 | 0.01407 ± 6e-05 | 0.01831 ± 7e-05 | 0.02164 ± 9e-05
m1 = 0.000976 | 0.01971 ± 8e-05 | 0.02238 ± 9e-05 | 0.03083 ± 0.00012 | 0.03667 ± 0.00015 | 0.04272 ± 0.00017 | 0.0591 ± 0.0002 | 0.07277 ± 0.00029
m1 = 0.00937 | 0.1291 ± 0.0005 | 0.1472 ± 0.0006 | 0.2073 ± 0.0008 | 0.2488 ± 0.001 | 0.2927 ± 0.0012 | 0.4146 ± 0.0017 | 0.5165 ± 0.0021
m1 = 0.09844 | 1.079 ± 0.0043 | 1.228 ± 0.0049 | 1.724 ± 0.0069 | 2.078 ± 0.0083 | 2.442 ± 0.0098 | 3.471 ± 0.014 | 4.261 ± 0.017
m1 = 0.3271 | 3.129 ± 0.013 | 3.538 ± 0.014 | 4.926 ± 0.02 | 5.922 ± 0.024 | 6.968 ± 0.028 | 9.861 ± 0.039 | 11.62 ± 0.046
